# Earlier results as cited in US20030031651A1, “Methods and reagents for cell transplantation” (priority 2001, published 2003).
# Test system: BMSCs
# Settings: BMSCs exposed to 5-azacytidine
compound,measurement,value
Nc1ncn([C@@H]2O[C@H](CO)[C@@H](O)[C@H]2O)c(=O)n1 [5-azacytidine],c-abl and interleukin-6 transcripts,rapidly upregulate
same,expression of collagen I,downregulating
